Laboratory results: patent US11512079B2, “Heterocycle substituted pyridine derivative antifungal agents” (Amplyx Pharmaceuticals, Inc., priority 2017, dated 2022)
≈ marks a conversion by molar mass, not a printed value.

Columns and labels:
Assay type in all cases: cell-based
Candida albicans 90028 = assay: In vitro antifungal assay (Example IX), microdilution broth, MIC; conditions: minimum inhibitory concentration (≥50% inhibition), 35° C., 40-48 h, RPMI1640
Summary of the method: (§1)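 CLSI broth microdilution in RPMI1640 with 2.5×10^3 cells/mL and final compound concentrations of 2-0.0019 μg/mL (1% DMSO). C. albicans 90028 plates were incubated at 35° C. for 40-48 h and C. neoformans H99 for 72 h. MIC was read as minimum inhibitory concentration, verified at 600 nm.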

[1] = system: Cryptococcus neoformans H99; assay: as above; conditions: minimum inhibitory concentration (≥50% inhibition), 35° C., 72 h, RPMI1640
Summary of the method: as §1

[2] = system: Aspergillus fumigatus MYA3626; assay: In vitro antifungal assay (Example IX), microdilution broth, MEC; conditions: minimum effective concentration (shortening of hyphae), 35° C., 40-48 h, RPMI1640
Summary of the method: (§2)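 Spore suspensions of A. fumigatus and R. pusillus adjusted to 1-2×10^4 spores/mL in RPMI1640 and exposed to compound dilutions prepared in DMSO, by broth microdilution. MEC taken as the lowest concentration shortening hyphae versus DMSO control wells, read as for echinocandins.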

[3] = system: Rhizomucor pusillus 46342; assay: as above; conditions: minimum effective concentration (shortening of hyphae), 35° C., 40-48 h, RPMI1640
Summary of the method: as §2

Cryptococcus gattii = assay: In vitro antifungal assay (Example IX), microdilution broth, MIC; conditions: minimum inhibitory concentration (≥50% inhibition), 35° C., 72 h (Cryptococcus), RPMI1640
Summary of the method: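 Broth microdilution in RPMI1640 with 2.5×10^3 cells/mL inoculum; final compound concentrations were 2–0.0019 μg/mL, with 1% DMSO. Cryptococcus plates were incubated at 35 °C for 72 h, and growth was read at 600 nm to give the MIC.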

| SMILES | MIC (Candida albicans 90028) | MIC [1] | minimal effective concentration [2] | minimal effective concentration [3] | MIC (Cryptococcus gattii) |
| --- | --- | --- | --- | --- | --- |
| Nc1ncccc1-c1cc(Cc2ccc(CCC3CCCCC3)cc2)no1 [compound 100, 3-(3-(4-(2-cyclohexylethyl)benzyl)isoxazol-5-yl)pyridin-2-amine] | 0.1 to 1 µg/mL (≈ 0.277 to 2.77 µM) | 0.1 to 1 µg/mL (≈ 0.277 to 2.77 µM) | 0.1 to 1 µg/mL | > 1 µg/mL | 0.1 to 1 µg/mL (≈ 0.277 to 2.77 µM) |
| Nc1ncccc1-c1cc(Cc2ccc(OCc3ncccn3)cc2)no1 [compound 28, 3-(3-(4-(pyrimidin-2-ylmethoxy)benzyl)isoxazol-5-yl)pyridin-2-amine] | 0.1 to 1 µg/mL (≈ 0.278 to 2.78 µM) | 0.1 to 1 µg/mL (≈ 0.278 to 2.78 µM) | 0.1 to 1 µg/mL | > 1 µg/mL | 0.1 to 1 µg/mL (≈ 0.278 to 2.78 µM) |
| Nc1ncccc1-c1cc(Cc2ccc(Oc3ccccn3)cc2)no1 [compound 110, 3-(3-(4-(pyridin-2-yloxy)benzyl)isoxazol-5-yl)pyridin-2-amine] | 0.01 to 0.1 µg/mL (≈ 0.029 to 0.29 µM) | 0.01 to 0.1 µg/mL (≈ 0.029 to 0.29 µM) | 0.01 to 0.1 µg/mL | 0.1 to 1 µg/mL | ≤ 0.01 µg/mL |
| c1ccc(COc2ccc(Cn3cc(-c4cccnc4)cn3)cn2)cc1 [compound 65, 2-(benzyloxy)-5-((4-(pyridin-3-yl)-1H-pyrazol-1-yl)methyl)pyridine] | 0.1 to 1 µg/mL (≈ 0.292 to 2.92 µM) | 0.1 to 1 µg/mL (≈ 0.292 to 2.92 µM) | 0.01 to 0.1 µg/mL | > 1 µg/mL | 0.1 to 1 µg/mL (≈ 0.292 to 2.92 µM) |
| Nc1ncccc1-c1cc(Cc2ccc(Cc3cccc(F)n3)cc2)no1 [compound 15, 3-(3-(4-((6-fluoropyridin-2-yl)methyl)benzyl)isoxazol-5-yl)pyridin-2-amine] | 0.01 to 0.1 µg/mL (≈ 0.0277 to 0.277 µM) | 0.01 to 0.1 µg/mL (≈ 0.0277 to 0.277 µM) | ≤ 0.01 µg/mL | 0.1 to 1 µg/mL | 0.01 to 0.1 µg/mL (≈ 0.0277 to 0.277 µM) |
| Nc1ncccc1-c1cc(Cc2ccc(Cc3ccnc(F)c3)cc2)no1 [compound 19, 3-(3-(4-((2-fluoropyridin-4-yl)methyl)benzyl)isoxazol-5-yl)pyridin-2-amine] | 0.01 to 0.1 µg/mL (≈ 0.0277 to 0.277 µM) | 0.01 to 0.1 µg/mL (≈ 0.0277 to 0.277 µM) | 0.01 to 0.1 µg/mL | 0.1 to 1 µg/mL | 0.01 to 0.1 µg/mL (≈ 0.0277 to 0.277 µM) |
| CC(C)(O)c1cccc(Cc2ccc(Cc3cc(-c4cccnc4N)on3)cc2)c1 [compound 209, 2-(3-(4-((5-(2-aminopyridin-3-yl)isoxazol-3-yl)methyl)benzyl)phenyl)propan-2-ol] | > 1 µg/mL | > 1 µg/mL | > 1 µg/mL | > 1 µg/mL | > 1 µg/mL |
| c1ccc(OCc2ccc(Cn3cc(-c4cccnc4)cn3)cc2)nc1 [compound 62, 2-((4-((4-(pyridin-3-yl)-1H-pyrazol-1-yl)methyl)benzyl)oxy)pyridine] | 0.1 to 1 µg/mL (≈ 0.292 to 2.92 µM) | > 1 µg/mL | 0.01 to 0.1 µg/mL | > 1 µg/mL | > 1 µg/mL |
| Nc1ncccc1-c1cc(Cc2ccc(OCc3ccccn3)nc2)no1 [compound 35, 3-(3-((6-(pyridin-2-ylmethoxy)pyridin-3-yl)methyl)isoxazol-5-yl)pyridin-2-amine] | 0.01 to 0.1 µg/mL (≈ 0.0278 to 0.278 µM) | 0.01 to 0.1 µg/mL (≈ 0.0278 to 0.278 µM) | 0.01 to 0.1 µg/mL | > 1 µg/mL | 0.01 to 0.1 µg/mL (≈ 0.0278 to 0.278 µM) |
| Nc1ncccc1-c1cc(Cc2ccc(Cc3cccc(F)c3)cc2)no1 [compound 208, 3-(3-(4-(3-fluorobenzyl)benzyl)isoxazol-5-yl)pyridin-2-amine] | 0.01 to 0.1 µg/mL (≈ 0.0278 to 0.278 µM) | 0.01 to 0.1 µg/mL (≈ 0.0278 to 0.278 µM) | 0.01 to 0.1 µg/mL | 0.1 to 1 µg/mL | 0.01 to 0.1 µg/mL (≈ 0.0278 to 0.278 µM) |
